For 9 molecules, S/N results are on record in US9341616B2, “Sweet taste receptor chimeric proteins and use thereof” (AJINOMOTO CO., INC., priority 2014, dated 2016).

Residues, ends and D or L forms follow the SMILES beside them.

One assay deals with T1, hT1R2/mT1R3 (UniProt Q8TE23+Q925D8).
T1 construct: expressed in transfected cells; host or cells: HEK293E
T1 sequence (Q8TE23 20-839): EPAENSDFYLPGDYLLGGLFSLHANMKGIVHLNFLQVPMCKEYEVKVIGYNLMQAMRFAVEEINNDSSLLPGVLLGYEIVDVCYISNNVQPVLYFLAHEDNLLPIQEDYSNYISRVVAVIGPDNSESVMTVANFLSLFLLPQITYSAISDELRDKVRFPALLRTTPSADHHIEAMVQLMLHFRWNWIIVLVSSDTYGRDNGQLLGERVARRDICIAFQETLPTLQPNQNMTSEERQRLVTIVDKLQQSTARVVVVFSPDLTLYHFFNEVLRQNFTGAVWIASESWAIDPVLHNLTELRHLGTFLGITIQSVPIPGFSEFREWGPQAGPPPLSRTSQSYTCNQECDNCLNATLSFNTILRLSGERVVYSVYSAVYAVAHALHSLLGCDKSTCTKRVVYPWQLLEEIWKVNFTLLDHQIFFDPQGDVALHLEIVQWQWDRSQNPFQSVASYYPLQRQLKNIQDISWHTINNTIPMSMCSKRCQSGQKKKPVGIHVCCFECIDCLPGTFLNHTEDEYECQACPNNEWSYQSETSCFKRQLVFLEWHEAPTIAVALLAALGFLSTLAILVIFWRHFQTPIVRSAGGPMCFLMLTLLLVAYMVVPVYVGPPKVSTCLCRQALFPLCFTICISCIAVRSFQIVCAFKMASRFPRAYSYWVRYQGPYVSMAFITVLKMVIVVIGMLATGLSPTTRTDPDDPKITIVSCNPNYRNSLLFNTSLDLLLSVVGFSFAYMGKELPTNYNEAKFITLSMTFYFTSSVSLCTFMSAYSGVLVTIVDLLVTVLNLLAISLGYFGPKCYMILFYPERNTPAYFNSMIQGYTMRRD
T1 sequence (Q925D8 21-858): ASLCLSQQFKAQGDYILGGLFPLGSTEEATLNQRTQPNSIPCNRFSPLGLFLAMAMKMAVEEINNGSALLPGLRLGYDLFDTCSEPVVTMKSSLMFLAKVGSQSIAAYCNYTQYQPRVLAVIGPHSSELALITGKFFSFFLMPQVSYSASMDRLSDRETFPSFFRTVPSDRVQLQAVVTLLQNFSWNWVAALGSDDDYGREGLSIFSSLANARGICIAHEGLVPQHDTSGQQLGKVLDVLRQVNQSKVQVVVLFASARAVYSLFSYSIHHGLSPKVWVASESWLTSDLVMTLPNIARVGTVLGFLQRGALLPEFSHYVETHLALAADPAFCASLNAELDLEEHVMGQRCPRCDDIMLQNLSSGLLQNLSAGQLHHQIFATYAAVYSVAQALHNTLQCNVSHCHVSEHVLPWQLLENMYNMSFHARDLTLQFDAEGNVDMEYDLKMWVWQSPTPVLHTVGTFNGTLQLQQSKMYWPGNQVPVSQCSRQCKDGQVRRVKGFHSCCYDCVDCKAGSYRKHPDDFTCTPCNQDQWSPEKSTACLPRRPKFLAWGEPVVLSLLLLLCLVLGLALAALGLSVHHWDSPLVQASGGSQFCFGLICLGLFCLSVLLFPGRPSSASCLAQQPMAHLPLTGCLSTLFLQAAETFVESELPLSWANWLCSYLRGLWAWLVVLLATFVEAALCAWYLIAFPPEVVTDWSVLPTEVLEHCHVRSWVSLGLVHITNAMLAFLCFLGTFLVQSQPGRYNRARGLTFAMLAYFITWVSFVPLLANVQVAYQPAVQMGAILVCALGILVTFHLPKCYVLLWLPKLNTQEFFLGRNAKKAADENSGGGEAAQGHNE
The assay is described as follows: Intracellular calcium assay (ΔF/F, S/N ratio) in HEK293E cells expressing hT1R2 and mT1R3 with Gα15-trans48LD. In kind it is cell-based, human/mouse. In general terms: A change in cytosolic calcium serves as a functional read-out for many receptors and channels.

The next assay has as its target T2, hT1R2/hT1R3 (Homo sapiens, UniProt Q7RTX0+Q8TE23, C757R).
T2 construct: expressed in transfected cells; host or cells: HEK293E
T2 sequence (Q8TE23 20-839): T1 sequence (Q8TE23 20-839)
T2 sequence (Q7RTX0 21-852 C757R): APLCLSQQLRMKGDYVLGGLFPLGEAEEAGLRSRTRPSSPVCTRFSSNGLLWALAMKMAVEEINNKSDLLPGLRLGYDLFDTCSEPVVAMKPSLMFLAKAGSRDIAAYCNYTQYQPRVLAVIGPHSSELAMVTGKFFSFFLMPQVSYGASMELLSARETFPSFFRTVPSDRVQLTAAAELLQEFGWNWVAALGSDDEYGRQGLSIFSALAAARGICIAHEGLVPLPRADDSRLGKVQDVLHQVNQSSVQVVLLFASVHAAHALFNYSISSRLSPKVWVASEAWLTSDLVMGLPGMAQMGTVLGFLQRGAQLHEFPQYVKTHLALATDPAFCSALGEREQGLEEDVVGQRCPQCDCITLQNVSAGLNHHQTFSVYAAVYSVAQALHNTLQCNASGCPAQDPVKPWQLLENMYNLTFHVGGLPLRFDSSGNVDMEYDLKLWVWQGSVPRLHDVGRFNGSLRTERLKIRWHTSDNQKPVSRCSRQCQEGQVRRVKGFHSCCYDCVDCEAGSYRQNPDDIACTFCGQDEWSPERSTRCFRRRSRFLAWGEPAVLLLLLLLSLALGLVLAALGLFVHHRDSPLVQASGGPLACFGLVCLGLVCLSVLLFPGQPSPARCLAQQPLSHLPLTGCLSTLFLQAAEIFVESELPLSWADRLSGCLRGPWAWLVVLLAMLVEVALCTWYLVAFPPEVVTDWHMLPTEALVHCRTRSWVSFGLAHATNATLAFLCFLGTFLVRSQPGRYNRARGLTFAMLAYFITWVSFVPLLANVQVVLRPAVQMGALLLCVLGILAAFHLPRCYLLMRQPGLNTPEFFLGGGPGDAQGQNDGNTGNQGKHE
Kind of assay: Intracellular calcium assay (ΔF/F, S/N ratio) in HEK293E cells expressing hT1R2 and hT1R3 with Gα15-trans48LD.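 Note: fluorescence read over 120 s after adding sweet stimulant across several concentrations, S/N taken as highest over lowest ΔF/F, higher meaning more sensitive detection.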 In kind it is cell-based.

[1] abbreviates: Table 3, genes hT2/mT3 (hT1R2, mT1R3).
[2] abbreviates: Table 4, genes hT2/mT3 (hT1R2, mT1R3).
Setting [3] is: Table 3, genes hT2/hT3 (hT1R2, hT1R3), max ΔF/F over min ΔF/F across concentrations.
The mark [4] stands for this setting: Table 4, genes hT2/hT3 (hT1R2, hT1R3).
[5] abbreviates: Table 5, genes hT2/hT3 (hT1R2, hT1R3).
The mark [6] stands for this setting: Table 6, genes hT2/hT3 (hT1R2, hT1Rm3).

Method for hT1R2/hT1R3: The HEK293E cells maintained by using the DMEM/Ham's F-12 medium (Nakarai Tesque) containing 10% fetal bovine serum ([sequence]) and 1% Pen Strep (GIBCO) were washed with D-PBS(−) (Nakarai Tesque), and collected from the flask by using 0.25% Trypsin EDTA (GIBCO). The cells were centrifuged (1,200 rpm, 3 minutes), and after the supernatant was removed, suspended in 5% FBS DMEM/Ham's F-12 at a density of 0.75×10^7 cell/ml. This suspension (10 ml) was put into a 150 cm^3 flask (IWAKI), and culture was performed overnight (37° C., 5% CO2).
After the gene transfer, the cells were washed with D-PBS(−), then removed from the flask by using 0.25% Trypsin EDTA (GIBCO), and collected. […] This cell suspension was put into wells of D-Lysine coat 96-well plate (BD bioscience) in such a volume that the cell count is 7.0×10^4 cells/well, and the cells were cultured overnight.
After the culture, all the medium of the 96 wells were discarded. […] After the staining, 50 μl of a solution of stimulant (sweet taste substance) prepared with the assay buffer was added to each well, and the fluorescence value was measured for 120 seconds after the stimulation by using FDSSμEELL (Hamamatsu Photonics). […] The measurement and analysis of the fluorescence value was performed by using the software attached to FDSSμEELL (FDSS7000EX), and ΔF/F value was calculated in accordance with the following equation, and used for the evaluation. ΔF/F=(Maximum fluorescence value after stimulation−Minimum fluorescence value after stimulation)/(Fluorescence value before stimulation)
Furthermore, by using the ΔF/F values obtained when each sweet taste substance was added, the S/N ratio was calculated. Specifically, the S/N value was calculated by using the minimum value of ΔF/F obtained when each substance was added at various concentrations as noise (N) value, and the similarly obtained maximum value of ΔF/F as the signal (S) value, and used as an index for sensitivity of the measurement of the activity of each receptor.
Method for hT1R2/mT1R3: The HEK293E cells maintained by using the DMEM/Ham's F-12 medium (Nakarai Tesque) containing 10% fetal bovine serum ([sequence]) and 1% Pen Strep (GIBCO) were washed with D-PBS(−) (Nakarai Tesque), and collected from the flask by using 0.25% Trypsin EDTA (GIBCO). The cells were centrifuged (1,200 rpm, 3 minutes), and after the supernatant was removed, suspended in 5% FBS DMEM/Ham's F-12 at a density of 0.75×10^7 cell/ml. This suspension (10 ml) was put into a 150 cm^3 flask (IWAKI), and culture was performed overnight (37° C., 5% CO2). On the next day, the medium was exchanged with Opti-MEM (30 ml, Invitrogen, Life Technologies), a sweet taste receptor gene mixture (Gα15-trans48LD gene, various kinds of T1R2 chimeric genes, and various kinds of T1R3 chimeric genes, 63.8 μg in total) prepared by using Opti-MEM and Lipofectamin 2000 (Invitrogen, Life Technologies) was slowly added to the cell suspension, and incubation was performed (37° C., 5% CO2) for 6 hours to attain gene transfer.
After the gene transfer, the cells were washed with D-PBS(−), then removed from the flask by using 0.25% Trypsin EDTA (GIBCO), and collected. After the cell number was counted, the cells were suspended in the 5% FBS DMEM medium (2.78 mM glucose, GIBCO) at a density of 0.5×10^6 cell/ml. This cell suspension was put into wells of D-Lysine coat 96-well plate (BD bioscience) in such a volume that the cell count is 7.0×10^4 cells/well, and the cells were cultured overnight.
After the culture, all the medium of the 96 wells were discarded. 200 μl of the staining solution for measurement of intracellular calcium ion′ Calcium Assay Kit Express (Molecular Device), diluted 80 times with an assay buffer (20 mM HEPES, 146 mM NaCl, 1 mM MgSO4, 1.39 mM glucose, 1 mM CaC12, 2.5 mM Probenecid, 0.05% bovine serum albumin) was added to each well, and the plate was left standing at 37° C. for 30 minutes and at room temperature for 45 minutes to perform staining. After the staining, 50 μl of a solution of stimulant (sweet taste substance) prepared with the assay buffer was added to each well, and the fluorescence value was measured for 120 seconds after the stimulation by using FDSSμEELL (Hamamatsu Photonics). By measuring the fluorescence value (Ex. 480 nm, Em. 540 nm) before and after the stimulation, the change of the intracellular free calcium ion concentration caused by addition of the stimulant via a sweet taste receptor was quantitatively investigated. The measurement and analysis of the fluorescence value was performed by using the software attached to FDSSμEELL (FDSS7000EX), and ΔF/F value was calculated in accordance with the following equation, and used for the evaluation. ΔF/F=(Maximum fluorescence value after stimulation−Minimum fluorescence value after stimulation)/(Fluorescence value before stimulation)
Furthermore, by using the ΔF/F values obtained when each sweet taste substance was added, the S/N ratio was calculated. Specifically, the S/N value was calculated by using the minimum value of ΔF/F obtained when each substance was added at various concentrations as noise (N) value, and the similarly obtained maximum value of ΔF/F as the signal (S) value, and used as an index for sensitivity of the measurement of the activity of each receptor. That is, a higher S/N value means a higher sensitivity for detection of an interaction of a sweet taste receptor and a test substance, which makes it easier to detect stimulation with a sweet taste substance or sweet taste-regulating substance of a lower concentration.

Consider `CC1=CC(=O)NS(=O)(=O)O1` [Acesulfame K, acesulfame potassium], for which the S/N on hT1R2/mT1R3 (setting [1]) is 2.4; at hT1R2/mT1R3 (setting [2]), 2.4; at hT1R2/hT1R3 (setting [3]) it was 1.9; at hT1R2/hT1R3 (setting [4]), 1.9; on hT1R2/hT1R3 (setting [5]) it was 1.9; at hT1R2/hT1R3 (setting [6]), 1.9.
As to `COC(=O)[C@H](Cc1ccccc1)NC(=O)[C@H](CC(=O)O)NCCCc1ccc(OC)c(O)c1` [Advantame, advantame], the S/N on hT1R2/mT1R3 (setting [1]) amounted to 4.6; on hT1R2/mT1R3 (setting [2]), 4.6; at hT1R2/hT1R3 (setting [3]) it was 3.2; at hT1R2/hT1R3 (setting [4]), 3.2; at hT1R2/hT1R3 (setting [5]), 3.2; at hT1R2/hT1R3 (setting [6]), 3.2.
`COC(=O)[C@H](Cc1ccccc1)NC(=O)[C@@H](N)CC(=O)O` [Aspartame, aspartame] (HELM PEPTIDE1{D.F.[CO[*:1]]}$$$$V2.0): the S/N came out at 2.3 at hT1R2/mT1R3 (setting [1]); 2.3 on hT1R2/mT1R3 (setting [2]); 1.6 at hT1R2/hT1R3 (setting [3]); 1.6 on hT1R2/hT1R3 (setting [4]); 1.6 at hT1R2/hT1R3 (setting [5]); 1.6 on hT1R2/hT1R3 (setting [6]).
As for `COc1ccc(CCC(=O)c2c(O)cc(O[C@@H]3O[C@H](CO)[C@@H](O)[C@H](O)[C@H]3O[C@@H]3O[C@@H](C)[C@H](O)[C@@H](O)[C@H]3O)cc2O)cc1O` [NHDC, neohesperidin dihydrochalcone], the S/N at hT1R2/hT1R3 (setting [5]) and on hT1R2/hT1R3 (setting [6]) was 2.0 throughout.
In the case of `COC(=O)[C@H](Cc1ccccc1)NC(=O)[C@H](CC(=O)O)NCCC(C)(C)C` [Neotame, neotame], the S/N on hT1R2/mT1R3 (setting [1]) worked out at 3.4; on hT1R2/mT1R3 (setting [2]) it was 3.4; at hT1R2/hT1R3 (setting [3]), 2.9; at hT1R2/hT1R3 (setting [4]), 2.9; at hT1R2/hT1R3 (setting [5]) it was 2.9; on hT1R2/hT1R3 (setting [6]), 2.9.
For the molecule `C[C@H](NC(=Nc1ccc(C#N)cc1)NCC(=O)O)c1ccccc1` [SC-45647, [3-[(S)-1-phenylethyl]-2-(4-cyanophenyl)guanidino]acetic acid], the S/N on hT1R2/mT1R3 (setting [1]) worked out at 3.9; on hT1R2/mT1R3 (setting [2]) it was 3.9; on hT1R2/hT1R3 (setting [3]), 3.0; on hT1R2/hT1R3 (setting [4]) it was 3.0; at hT1R2/hT1R3 (setting [5]), 3.0; at hT1R2/hT1R3 (setting [6]), 3.0.
As for `O=C1NS(=O)(=O)c2ccccc21.[Na]` [Saccharin Na, sodium saccharin], the S/N on hT1R2/mT1R3 (setting [1]) was found to be 2.8; at hT1R2/mT1R3 (setting [2]), 2.8; on hT1R2/hT1R3 (setting [3]) it was 2.5; on hT1R2/hT1R3 (setting [4]) it was 2.5; on hT1R2/hT1R3 (setting [5]), 2.5; on hT1R2/hT1R3 (setting [6]) it was 2.5.
In the case of `OC[C@H]1O[C@H](O[C@]2(CCl)O[C@H](CCl)[C@@H](O)[C@@H]2O)[C@H](O)[C@@H](O)[C@H]1Cl` [Sucralose, sucralose], the S/N on hT1R2/mT1R3 (setting [1]) is on record as 4.0; at hT1R2/mT1R3 (setting [2]) it was 4.0; on hT1R2/hT1R3 (setting [3]), 3.3; at hT1R2/hT1R3 (setting [4]), 3.3; at hT1R2/hT1R3 (setting [5]) it was 3.3; at hT1R2/hT1R3 (setting [6]), 3.3.
Take `OC[C@H]1O[C@@](CO)(O[C@H]2O[C@H](CO)[C@@H](O)[C@H](O)[C@H]2O)[C@@H](O)[C@@H]1O` [Sucrose, sucrose]: the S/N came to 2.4 at hT1R2/mT1R3 (setting [1]); 2.4 at hT1R2/mT1R3 (setting [2]); 1.9 at hT1R2/hT1R3 (setting [3]); 1.9 on hT1R2/hT1R3 (setting [4]); 1.9 on hT1R2/hT1R3 (setting [5]); 1.9 on hT1R2/hT1R3 (setting [6]).
